Source: patent US20250108062A1, “VITAMIN NANOCLUSTERS AS THERAPEUTIC AND NUTRACEUTIC AGENTS AND CARRIERS” (FONDAZIONE ISTITUTO ITALIANO DI TECNOLOGIA, priority 2022, published 2025)

Test system: Bone Marrow Derived Monocytes (BMDM)
Experiment: MTT cell viability / toxicity on BMDMs
Conditions: 24, 48, 72 h, all tested concentrations
Procedure: After 24, 48, or 72 h of incubation, the culture medium was removed, a MTT solution was added to each well according to the manufacturer's instruction. The absorbance of formazan crystals dissolved in EtOH was quantified using a microplate spectrophotometer at a wavelength of 570 nm, using 650 nm as the reference wavelength (Tecan, Mannedorf, Swiss). The percentage of cell viability was assessed according to the following equation:
where, Abst was the absorbance of treated cells and Abs, was the absorbance of control (untreated) cells.

`C=C1CC[C@H](O)C/C1=C/C=C1\CCC[C@]2(C)[C@@H]([C@H](C)CCCC(C)C)CC[C@@H]12` [free Vitamin D3, Vitamin D3] was tested, and the “cytotoxicity (MTT cell viability)” value was “do not induce a significant cytotoxicity”.
